In patent US6359142B1 (priority 1998, dated 2002):

How the values were obtained:
Phytophthora infestans = assay type: in vivo; conditions: tomato, protective, application rate 50 g/ha, evaluation 3 days after inoculation; 0% = control, 100% = no infection

SMILES: CCc1c(C#N)oc(=O)n1S(=O)(=O)c1c(C)noc1C [Example 1, 5-cyano4-ethyl-3-(3,5-dimethyl-isoxazole-4-sulphonyl)-3H-[1,3]-oxazol-2-one]
- Efficacy in % (Phytophthora infestans): 94%
- melting point: 117 to 122 °C
- logP (log p): 2.87

SMILES: CCc1[nH]c(=O)oc1C#N [5-cycano-4-ethyl-3H-[1,3]-oxazol-2-one]
- logP (log p): 0.88
